Measurements taken from article PMC11714206, “Massively Parallel Screening of Toll/Interleukin‐1 Receptor (TIR)‐Derived Peptides Reveals Multiple Toll‐Like Receptors (TLRs)‐Targeting Immunomodulatory Peptides” (Advanced Science, 2024).
Each block holds one sequence with its values, some of them ahead of it.

Biological target: T1, MAL^TIR (Homo sapiens, UniProt P58753)
T1 construct: MAL (residues 79–221); 6xHis; made in house; host or cells: E. coli BL21 (DE3)
Experiment: T‐Surf phage library (P8 and P3) selection against MAL^TIR, four rounds, NGS read counts
Format: binding
Settings: for P3_MAL Rank (after) / P3_MAL Rank (before): P3 library; for Population: P3_MAL pool: P3 T-Surf phage library, 4th round of selection against MAL TIR, share of NGS reads; for P8_MAL Rank (after) / P8_MAL Rank (before): P8 library
Method in brief: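 P8 and P3 T‐Surf libraries panned against plate-coated TIR domains (5 µg mL^−1), 1 h binding at RT, acid elution and TG1/helper-phage amplification per round. After four rounds, pools were PCR-barcoded and sequenced (NovaSeq, 100 bp paired-end, Phred ≥30); peptides ranked by read counts.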

[1] = selection against MAL, rank by count after grouping
[2] = selection against MAL, rank by count before grouping
[3] = selection against MAL TIR, rank by count after grouping
[4] = selection against MAL TIR, rank by count before grouping
[5] = selection against MAL, rank after grouping
[6] = selection against MAL, rank before grouping
[7] = P8_MAL: rank by count after grouping
[8] = P8_MAL: rank by count before grouping
[9] = P3_MAL: rank by count after grouping
[10] = P3_MAL: rank by count before grouping
[11] = 4R selection against MAL, rank after grouping
[12] = 4R selection against MAL, rank before grouping

T1 sequence (P58753 79-221): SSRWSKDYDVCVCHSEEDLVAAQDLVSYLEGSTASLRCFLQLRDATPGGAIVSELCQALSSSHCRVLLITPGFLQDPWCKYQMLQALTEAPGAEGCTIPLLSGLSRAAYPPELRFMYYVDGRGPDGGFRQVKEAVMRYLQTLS

P3_MAL Rank (after) [5]: 530
P3_MAL Rank (before) [6]: 2248
Sequence: LKWGDPYFWRKIRYAM

Rank (after) [7]: 111
Rank (before) [8]: 2159
Sequence: LLFWGSLKQLLRSDGR

Population: 0.00338%
Sequence: LNVESWRQALEKAGKL

Rank (after) [9]: 185
Rank (before) [10]: 2196
Sequence: LNWGDPYFWRKLRYAM

P3_MAL Rank (after) [3]: 230
P3_MAL Rank (before) [4]: 2137
Sequence: LQNHCKLALTKVANLV

Rank (after) [9]: 459
Rank (before) [10]: 2149
Sequence: LQNQWKLALTNVASLV

Rank (after) [9]: 398
Rank (before) [10]: 2188
Sequence: LSGWAFKRGSCAEYEY

Rank (after) [9]: 392
Rank (before) [10]: 2181
Sequence: LSVESWRQALEKAGQL

P3_MAL Rank (after) [1]: 764
P3_MAL Rank (before) [2]: 2101
Sequence: LVAHEISKKMNIFATV

P8_MAL Rank (after) [11]: 636
P8_MAL Rank (before) [12]: 2163
Sequence: LVFWESLKHLLRSDDR

P3_MAL Rank (after) [1]: 745
P3_MAL Rank (before) [2]: 2091
Sequence: LVVQENLKQLLLFGGL

P3_MAL Rank (after) [11]: 587
P3_MAL Rank (before) [12]: 2929
Sequence: MERVKAFHQRLKTALGH

P3_MAL Rank (after) [3]: 225
P3_MAL Rank (before) [4]: 2932
Sequence: MERVKAFHQRLKTAPI

Rank (after) [9]: 388
Rank (before) [10]: 2938
Sequence: MRLPAICNVIWCSVA

Population: 0.00413%
Sequence: MSHLYQGLKNRGI

Rank (after) [9]: 117
Rank (before) [10]: 254
Sequence: MSHLYQGLKNRGIFT

P3_MAL Rank (after) [5]: 527
P3_MAL Rank (before) [6]: 2944
Sequence: MSHLYQGLNNRGIFIF

Rank (after) [9]: 396
Rank (before) [10]: 2943
Sequence: MSHLYQGLQHRGIFTF

P3_MAL Rank (after) [11]: 663
P3_MAL Rank (before) [12]: 2959
Sequence: MSQRYQGLKNRGIFTF

Population: 0.00488%
Sequence: NAFTGHLHRYLVQRGV

P3_MAL Rank (after) [1]: 679
P3_MAL Rank (before) [2]: 3278
Sequence: NDVEGCRDALTKVASL

P3_MAL Rank (after) [3]: 263
P3_MAL Rank (before) [4]: 3433
Sequence: NHSRNALTAAANLSGW

P3_MAL Rank (after) [11]: 618
P3_MAL Rank (before) [12]: 3319
Sequence: NLWKLWTKPGGVRDDR

P8_MAL Rank (after) [1]: 720
P8_MAL Rank (before) [2]: 2656
Sequence: NLWRNALTAAANLSSW

P3_MAL Rank (after) [11]: 631
P3_MAL Rank (before) [12]: 3431
Sequence: NQAFWNRLWAKLKPLT

Rank (after) [9]: 402
Rank (before) [10]: 3424
Sequence: NQCHNAITADMNQTRL

P3_MAL Rank (after) [5]: 538
P3_MAL Rank (before) [6]: 3423
Sequence: NQCRNALTPAAKLSSL

P3_MAL Rank (after) [5]: 528
P3_MAL Rank (before) [6]: 3330
Sequence: NQCTDALTAAVVLSGW

P3_MAL Rank (after) [11]: 613
P3_MAL Rank (before) [12]: 3325
Sequence: NQLRNALTASANLSGW

P3_MAL Rank (after) [3]: 267
P3_MAL Rank (before) [4]: 3324
Sequence: NQLRTALTAAANLSGW

P3_MAL Rank (after) [11]: 625
P3_MAL Rank (before) [12]: 3351
Sequence: NQWRNALSSIASRP

P3_MAL Rank (after) [3]: 282
P3_MAL Rank (before) [4]: 3379
Sequence: NQWRNALTAAANLSDR

Population: 0.00564%
Sequence: NQWRNALTAAANLSGR

Rank (after) [9]: 169
Rank (before) [10]: 3353
Sequence: NQWRNALTAASNLSIW

P3_MAL Rank (after) [3]: 268
P3_MAL Rank (before) [4]: 3414
Sequence: NQWRNALTAEAKLSGW

Further lines, the sequence ahead of its results:

Sequence: LKWGDPYFLEQTALCD
P3_MAL Rank (after) [1]: 771
P3_MAL Rank (before) [2]: 2208

Sequence: LKWGDPYFWIKLRYTM
P3_MAL Rank (after) [3]: 233
P3_MAL Rank (before) [4]: 2212

Sequence: LKWGDPYFWSNCVMR
P3_MAL Rank (after) [1]: 699
P3_MAL Rank (before) [2]: 2216

Sequence: LLIYRFVKKRNYLLGH
Rank (after) [9]: 416
Rank (before) [10]: 2085

Sequence: LNLRTKVLNYLMRTKT
Population: 0.00488%

Sequence: LQNQWKLALTAAANLSGW
P3_MAL Rank (after) [11]: 629
P3_MAL Rank (before) [12]: 2147

Sequence: LQNQWKLALTKVAHLL
P3_MAL Rank (after) [3]: 219
P3_MAL Rank (before) [4]: 2152

Sequence: LQNQWKLALTKVAKLE
P3_MAL Rank (after) [3]: 236
P3_MAL Rank (before) [4]: 2160

Sequence: LQNQWKLALTQAAN
P3_MAL Rank (after) [3]: 231
P3_MAL Rank (before) [4]: 827

Sequence: LQNQWRNALTAAANLSGW
Rank (after) [9]: 422
Rank (before) [10]: 2140

Sequence: LRKIADLSGWTLKSFR
P8_MAL Rank (after) [1]: 677
P8_MAL Rank (before) [2]: 2165

Sequence: LVAHAISKKMKLFATI
Rank (after) [9]: 411
Rank (before) [10]: 2093

Sequence: LVAHEISKKMKIFATI
Rank (after) [7]: 182
Rank (before) [8]: 923

Sequence: LVAHEISKKMKIFCDH
P3_MAL Rank (after) [5]: 490
P3_MAL Rank (before) [6]: 2102

Sequence: LVAHGISNKLKIFATI
Rank (after) [9]: 387
Rank (before) [10]: 2092

Sequence: MFGGDTFHDFLDLISM
P8_MAL Rank (after) [3]: 192
P8_MAL Rank (before) [4]: 1005

Sequence: MSMRPGDRLQRSGI
Rank (after) [9]: 454
Rank (before) [10]: 2967

Sequence: MVRVKAFHKRLKTALG
Rank (after) [9]: 438
Rank (before) [10]: 2922

Sequence: NAFTGNLHRYLVQRGV
P3_MAL Rank (after) [3]: 287
P3_MAL Rank (before) [4]: 3276

Sequence: NELVHVWSSKAHSPVG
P3_MAL Rank (after) [1]: 731
P3_MAL Rank (before) [2]: 3294

Sequence: NFLGLLYNELVQAGLH
P8_MAL Rank (after) [3]: 259
P8_MAL Rank (before) [4]: 2675

Sequence: NGHESELIKEIVVTIV
P3_MAL Rank (after) [11]: 647
P3_MAL Rank (before) [12]: 3257

Sequence: NGHGSAIIKEIVVTSW
Rank (after) [9]: 468
Rank (before) [10]: 3252

Sequence: NGYGSELIKEIVDTGV
P3_MAL Rank (after) [1]: 702
P3_MAL Rank (before) [2]: 3249

Sequence: NHWRNALTAAANLIGW
P8_MAL Rank (after) [3]: 248
P8_MAL Rank (before) [4]: 2657

Sequence: NLIQGWLLYRLLKIEK
P8_MAL Rank (after) [3]: 286
P8_MAL Rank (before) [4]: 2678

Sequence: NLLYDLLRWLGIRAFL
Rank (after) [7]: 403
Rank (before) [8]: 2677

Sequence: NLWRNALTVAANLSGW
P3_MAL Rank (after) [5]: 540
P3_MAL Rank (before) [6]: 3318

Sequence: NNLFNALVSKNIRTFM
P3_MAL Rank (after) [3]: 258
P3_MAL Rank (before) [4]: 3481

Sequence: NNLFNELVSKNIRTFT
P3_MAL Rank (after) [1]: 735
P3_MAL Rank (before) [2]: 3480

Sequence: NQCRNALTAAANLKGW
Rank (after) [9]: 146
Rank (before) [10]: 3327

Sequence: NQCRNALTAAANLSGW
Population: 0.00376%

Sequence: NQCSNALTGAAILSGW
P3_MAL Rank (after) [11]: 641
P3_MAL Rank (before) [12]: 3329

Sequence: NQRRNAVTAAAKLSGC
Rank (after) [9]: 469
Rank (before) [10]: 3476

Sequence: NQWHNALAAAANLLGL
Rank (after) [9]: 473
Rank (before) [10]: 3418

Sequence: NQWRDPLTGDMILSGW
P3_MAL Rank (after) [1]: 767
P3_MAL Rank (before) [2]: 3336

Sequence: NQWRNALPAAANLRGW
P3_MAL Rank (after) [3]: 286
P3_MAL Rank (before) [4]: 3349

Sequence: NQWRNALTAAAHLSGL
Rank (after) [9]: 157
Rank (before) [10]: 3362

Sequence: NQWRNALTAAAKLKAPI
P3_MAL Rank (after) [5]: 522
P3_MAL Rank (before) [6]: 3386

Sequence: NQWRNALTAAAKLSGG
P3_MAL Rank (after) [5]: 564
P3_MAL Rank (before) [6]: 3384

Sequence: NQWRNALTAAANLIGW
Population: 0.00413%

Sequence: NQWRNALTAAANLRGR
Rank (after) [9]: 145
Rank (before) [10]: 3369

Sequence: NQWRNALTAAANLSVC
P3_MAL Rank (after) [11]: 610
P3_MAL Rank (before) [12]: 3370

Sequence: NQWRNALTAAANQSGL
Rank (after) [9]: 161
Rank (before) [10]: 3383

Sequence: NQWRNALTAAASLSGR
P3_MAL Rank (after) [3]: 221
P3_MAL Rank (before) [4]: 3364

Sequence: NQWRNALTAATNLSGG
Rank (after) [9]: 119
Rank (before) [10]: 3403

Sequence: NQWRNALTAEANLSGW
Population: 0.00413%

Sequence: NQWRNALTAPANLSGR
P3_MAL Rank (after) [3]: 228
P3_MAL Rank (before) [4]: 3389
